The subject of the test is Macrophage RAW264.7. Put plainly: NO production by macrophage RAW264.7 stimulated with polysaccharide (Griess reagent). The class given is cell-based. The note with it: RAW264.7 cells, positive control 1 μg/mL lipopolysaccharide (LPS), 24 h incubation, supernatant, 540 nm. As for the experimental part: Macrophage RAW264.7 is stimulated using Fomes officinalis polysaccharides prepared in Embodiments 1-3, and the concentrations of NO produced therefrom are determined, and the results are shown in Table 1. Specific experimental methods: 100 microliters (L) of RAW264.7 cells (1×10^6 cells/mL) are added to 96 microtiter plates and pre-cultured in a 37° C. 5% CO2 incubator for 24 hours (h). The supernatant is discarded, and 200 μL of 5 micrograms per milliliter (μg/mL) polysaccharide solution is added to the cells, the culture solution is used as a negative control, and 1 μg/mL lipopolysaccharide (LPS) is used as a positive control, then the cells are incubated for 24 h. To determine the NO level in the supernatant, 100 μL of supernatant is added with 100 μL of Griess reagent, and the absorbance is measured at 540 nm after 10 min of reaction at room temperature and protected from light using an enzyme labeler (Biotek instruments, Winooski, VT, USA), and the NO yield is calculated by substituting the absorbance value of the samples into the standard curve, using sodium nitrite as the standard.

The values below come from US20240218084A1, “METHOD FOR PURIFYING FOMES OFFICINALIS POLYSACCHARIDE BY SEQUENTIAL SIMULATED MOVING CHROMATOGRAPHY” (HEILONGJIANG BAYI AGRICULTURAL UNIVERSITY, priority 2022, published 2024).

“lipopolysaccharide [Positive control group]”: the NO yield stood at 41.06 µmol/L.
